Reference: patent publication US9969726B2, “Metabotropic glutamate receptor negative allosteric modulators (NAMS) and uses thereof” (Sanford-Burnham Medical Research Institute, priority 2014, dated 2018)
Like-named read-outs stand apart in the source and are kept apart here.

How the values were obtained:
rat mGlu3 receptor = rat mGlu3 receptor (Rattus norvegicus (Rat), UniProt P31422); test: mGlu3 in vitro GIRK thallium flux assay; format: cell-based; conditions: NAM; 2.5 min compound incubation; EC80 glutamate; HEK-293 GIRK cells
Protocol: (§1) All cell culture reagents were purchased from Invitrogen Corp. (Carlsbad, Calif.) unless otherwise noted. Compound activity at the group II (mGlu2 and mGlu3) mGlus was assessed using thallium flux through GIRK channels. Briefly, cells were plated into 384-well, black-walled, clear-bottomed poly-D-lysine-coated plates at a density of 15,000 cells/20 μL/well in DMEM containing 10% dialyzed FBS, 20 mM HEPES, and 100 units/mL penicillin/streptomycin (assay media). Plated cells were incubated overnight at 37° C. in the presence of 5% CO2. […] Cells were incubated for 1 h at room temperature, and the dye exchanged to assay buffer using an ELX405, leaving 20 μL/well. Test compounds were diluted to 2 times their final desired concentration in assay buffer (0.3% DMSO final concentration). […] Cell plates and compound plates were loaded onto a kinetic imaging plate reader (FDSS 6000 or 7000; Hamamatsu Corporation, Bridgewater, N.J.). Appropriate baseline readings were taken (10 images at 1 Hz; excitation, 470±20 nm; emission, 540±30 nm) and test compounds were added in a 20 μL volume and incubated for either 2.5 min or 60 min as indicated before the addition of 10 μL of thallium buffer with or without agonist. After the addition of agonist, data were collected for approximately an additional 2.5 min. Data were analyzed using Excel (Microsoft Corp, Redmond, Wash.). The slope of the fluorescence increase beginning 5 s after thallium/agonist addition and ending 15 s after thallium/agonist addition was calculated, corrected to vehicle and maximal agonist control slope values, and plotted in using either XLfit (ID Business Solutions Ltd) or Prism software (GraphPad Software, San Diego, Calif.) to generate concentration-response curves. Potencies were calculated from fits using a four-point parameter logistic equation. For concentration-response curve experiments, compounds were serially diluted 1:3 into 10 point concentration response curves and were transferred to daughter plates using an Echo acoustic plate reformatter (Labcyte, Sunnyvale, Calif.). Test compounds were applied and followed by EC80 concentrations of glutamate.

rat mGlu2 receptor = rat mGlu2 receptor (Rattus norvegicus (Rat), UniProt P31421); test: mGlu2 in vitro GIRK thallium flux assay; format: cell-based; conditions: NAM, EC80 glutamate, HEK-293 GIRK cells
Protocol: as §1

[1] = 2.5 min compound incubation, read-out: mGlu2 EC50 (μM) (2.5 min)
[2] = mGlu2 EC50 (μM) (60 min), 60 min compound incubation
[3] = read-out: mGlu2 EC50 (μM) (60 min), 60 min compound incubation

Sequence of rat mGlu2 receptor (P31421 19-872): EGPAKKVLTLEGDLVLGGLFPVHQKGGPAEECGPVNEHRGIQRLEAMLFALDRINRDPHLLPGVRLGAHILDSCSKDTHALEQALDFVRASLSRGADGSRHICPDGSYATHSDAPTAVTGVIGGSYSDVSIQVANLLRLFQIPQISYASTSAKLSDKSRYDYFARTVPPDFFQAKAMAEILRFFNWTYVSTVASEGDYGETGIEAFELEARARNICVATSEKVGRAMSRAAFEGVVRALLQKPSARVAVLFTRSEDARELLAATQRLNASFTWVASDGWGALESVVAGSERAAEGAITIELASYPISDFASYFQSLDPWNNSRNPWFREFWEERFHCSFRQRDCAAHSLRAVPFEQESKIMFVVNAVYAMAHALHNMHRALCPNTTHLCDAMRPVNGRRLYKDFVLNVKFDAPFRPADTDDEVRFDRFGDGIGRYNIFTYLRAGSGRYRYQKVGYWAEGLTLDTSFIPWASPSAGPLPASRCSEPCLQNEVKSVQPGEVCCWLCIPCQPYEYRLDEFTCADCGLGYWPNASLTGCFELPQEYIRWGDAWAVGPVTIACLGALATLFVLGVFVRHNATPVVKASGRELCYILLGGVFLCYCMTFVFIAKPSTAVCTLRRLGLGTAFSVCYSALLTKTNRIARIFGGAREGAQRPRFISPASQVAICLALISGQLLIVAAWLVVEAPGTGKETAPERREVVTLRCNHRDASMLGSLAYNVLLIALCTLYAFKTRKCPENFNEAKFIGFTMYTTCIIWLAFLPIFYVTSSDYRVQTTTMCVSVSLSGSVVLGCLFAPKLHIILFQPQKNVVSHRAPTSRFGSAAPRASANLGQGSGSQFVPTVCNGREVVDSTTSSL
Sequence of rat mGlu3 receptor (P31422 23-879): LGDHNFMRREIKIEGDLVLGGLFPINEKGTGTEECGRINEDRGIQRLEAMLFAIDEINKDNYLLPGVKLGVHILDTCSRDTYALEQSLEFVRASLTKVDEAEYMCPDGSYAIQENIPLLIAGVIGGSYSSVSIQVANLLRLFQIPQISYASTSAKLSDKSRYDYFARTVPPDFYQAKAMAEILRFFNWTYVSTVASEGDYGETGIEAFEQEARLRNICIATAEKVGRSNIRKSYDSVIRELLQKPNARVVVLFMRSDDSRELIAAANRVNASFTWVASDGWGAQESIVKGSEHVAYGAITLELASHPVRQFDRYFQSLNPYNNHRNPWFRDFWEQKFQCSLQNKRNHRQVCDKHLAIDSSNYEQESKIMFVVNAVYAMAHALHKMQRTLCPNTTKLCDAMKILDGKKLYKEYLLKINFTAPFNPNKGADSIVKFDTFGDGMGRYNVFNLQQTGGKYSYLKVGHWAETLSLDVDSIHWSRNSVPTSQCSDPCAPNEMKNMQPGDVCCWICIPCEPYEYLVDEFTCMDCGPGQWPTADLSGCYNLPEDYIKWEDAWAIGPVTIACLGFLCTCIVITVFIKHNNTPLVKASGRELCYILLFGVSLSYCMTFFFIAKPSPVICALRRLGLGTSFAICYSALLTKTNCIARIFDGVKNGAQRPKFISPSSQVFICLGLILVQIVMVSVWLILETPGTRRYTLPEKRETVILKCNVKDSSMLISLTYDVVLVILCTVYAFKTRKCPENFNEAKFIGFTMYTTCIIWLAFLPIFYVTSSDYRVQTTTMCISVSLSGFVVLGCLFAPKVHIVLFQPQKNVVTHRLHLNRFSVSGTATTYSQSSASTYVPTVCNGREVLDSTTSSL

Row | SMILES | EC50 (rat mGlu3 receptor) [µM] | EC50 (rat mGlu2 receptor; [1]) [µM] | EC50 (rat mGlu2 receptor; [2]) [µM] | EC50 (rat mGlu2 receptor; [3]) [µM]
1 | O=C(O)c1ccc(F)c(-c2cccc(-c3csc(-c4ccccc4)n3)c2)c1 [Example 11, 6-Fluoro-3′-(2-phenylthiazol-4-yl)biphenyl-3-carboxylic Acid] | > 30 | 1.59 | 3.4 | 
2 | N#Cc1cccc(-c2cccc(-c3csc(-c4ccccc4)n3)c2)c1 [Example 14, 3′-(2-Phenylthiazol-4-yl)biphenyl-3-carbonitrile] | > 30 | > 30 |  | > 10
3 | O=C(O)c1cc(-c2ccc(-c3csc(-c4ccccc4)n3)cc2)ccc1F [Example 17, 4-Fluoro-4′-(2-phenylthiazol-4-yl)biphenyl-3-carboxylic Acid] | > 30 | > 30 |  | > 30
4 | O=C(O)c1cc(-c2ccccc2-c2csc(-c3ccccc3)n2)ccc1F [Example 18, 4-Fluoro-2′-(2-phenylthiazol-4-yl)biphenyl-3-carboxylic Acid] | > 10 | > 10 |  | > 30
5 | O=Cc1cc(-c2cccc(-c3csc(-c4ccccc4)n3)c2)ccc1F [Example 19, 4-Fluoro-3′-(2-phenylthiazol-4-yl)biphenyl-3-carbaldehyde] | > 10 | 3.67 | 1.55 | 
6 | ON=Cc1cc(-c2cccc(-c3csc(-c4ccccc4)n3)c2)ccc1F [Example 20, 4-Fluoro-3′-(2-phenylthiazol-4-yl)biphenyl-3-carbaldehyde oxime] | > 30 | > 30 | > 10 | 
7 | O=C(O)c1ccc(-c2cccc(-c3csc(-c4ccccc4)n3)c2)cc1Cl [Example 21, 3-Chloro-3′-(2-phenylthiazol-4-yl)biphenyl-4-carboxylic Acid] | > 10 | > 10 | > 10 | 
8 | O=C(O)c1ccc(-c2cccc(-c3csc(-c4ccccc4)n3)c2)cc1 [Example 22, 3′-(2-Phenylthiazol-4-yl)biphenyl-4-carboxylic Acid] | > 30 | > 30 | > 10 | 
9 | COc1ccc(C(=O)O)cc1-c1cccc(-c2csc(-c3ccccc3)n2)c1 [Example 23, 6-Methoxy-3′-(2-phenylthiazol-4-yl)biphenyl-3-carboxylic Acid] | > 10 | 1.81 | 1.35 | 
10 | O=C(O)c1ccccc1-c1cccc(-c2csc(-c3ccccc3)n2)c1 [Example 25, 3′-(2-Phenylthiazol-4-yl)biphenyl-2-carboxylic Acid] | > 10 | > 10 |  | > 10
11 | O=C(O)c1ccc(-c2cccc(-c3csc(-c4ccccc4)n3)c2)c(Cl)c1 [Example 26, 2-Chloro-3′-(2-phenylthiazol-4-yl)biphenyl-4-carboxylic Acid] | > 10 | > 30 | > 30 | 
12 | O=C(O)c1cc(-c2csc(-c3ccccc3)n2)ccc1F [Example 27, 2-Fluoro-5-(2-phenylthiazol-4-yl)benzoic acid] | > 30 | > 10 | > 30 | 
13 | O=C(O)c1cccc(-c2cccc(-c3csc(-c4ccccc4)n3)c2)c1 [Example 28, 3′-(2-Phenylthiazol-4-yl)biphenyl-3-carboxylic Acid] | > 10 |  | 0.2 | 
14 | O=C(O)c1cccc(-c2cccc(-c3csc(-c4cccc5ccccc45)n3)c2)c1 [Example 30] | > 30 | > 10 | > 10 | 
15 | O=C(O)c1cccc(-c2cccc(-c3csc(-c4ccc5ccccc5c4)n3)c2)c1 [Example 32, 3-[3-(2-(2-Naphthyl)-1,3-thiazol-4-yl)phenyl]benzoic acid] | > 30 | > 10 | 4.98 | 
16 | O=C(O)c1cccc(-c2cccc(-c3csc(-c4cccc(C(=O)O)c4)n3)c2)c1 [Example 33, 3-{4-[3-(3-Carboxyphenyl)phenyl]-1,3-thiazol-2-yl}benzoic acid] | > 10 | 4.83 | > 10 | 
17 | O=C(O)c1cccc(-c2cccc(-c3csc(-c4ccc5c(c4)OCCO5)n3)c2)c1 [Example 34, 3-[3-(2-(2H,3H-benzo[e]1,4-dioxin-6-yl)-1,3-thiazol-4-yl)phenyl]benzoic acid] | > 10 | > 10 |  | 0.28
18 | O=C(O)c1cccc(-c2cccc(-c3csc(-c4ccc(Cl)nc4)n3)c2)c1 [Example 35, 3′-(2-(6-Chloropyridin-3-yl)thiazol-4-yl)biphenyl-3-carboxylic Acid] | > 10 | 3.83 | 0.27 | 
19 | O=C(O)c1cccc(-c2cccc(-c3csc(/C=C/c4ccccc4)n3)c2)c1 [Example 36, (E)-3′-(2-Styrylthiazol-4-yl)biphenyl-3-carboxylic Acid] | > 10 | 3.47 | > 10 | 

More lines, main results first:

Row | EC50 (rat mGlu3 receptor) [µM] | EC50 (rat mGlu2 receptor; [1]) [µM] | EC50 (rat mGlu2 receptor; [2]) [µM] | SMILES | EC50 (rat mGlu2 receptor; [3]) [µM]
20 | > 10 | 2.26 | 2.5 | O=C(O)c1cc(-c2cccc(-c3csc(-c4ccoc4)n3)c2)ccc1F [Example 4, 4-Fluoro-3′-(2-(furan-3-yl)thiazol-4-yl)biphenyl-3-carboxylic Acid] | 
21 | 3.11 | 1.35 | 0.85 | O=C(O)c1cc(-c2cccc(-c3csc(-c4ccc(C(F)(F)F)nc4)n3)c2)ccc1F [Example 5, 4-Fluoro-3′-(2-(6-(trifluoromethyl)pyridin-3-yl)thiazol-4-yl)biphenyl-3-carboxylic Acid] | 
22 | > 10 | > 10 | > 10 | Cc1nc(-c2cccc(-c3ccc(F)c(C(=O)O)c3)c2)cs1 [Example 6, 4-Fluoro-3′-(2-methylthiazol-4-yl)biphenyl-3-carboxylic Acid] | 
23 | > 10 | 2.4 | > 10 | O=C(O)c1cc(-c2cccc(-c3csc(-c4ccco4)n3)c2)ccc1F [Example 7, 4-Fluoro-3′-(2-(furan-2-yl)thiazol-4-yl)biphenyl-3-carboxylic Acid] | 
24 | > 10 | > 10 | 1.92 | O=C(O)c1cc(-c2cccc(-c3csc(-c4cc5ccccc5s4)n3)c2)ccc1F [Example 8, 3′-(2-(Benzo[b]thiophen-2-yl)thiazol-4-yl)-4-fluorobiphenyl-3-carboxylic Acid] | 
25 | > 10 | > 10 | > 10 | O=C(O)c1cc(-c2ccc(-c3csc(-c4ccccc4)n3)s2)ccc1F [Example 10, 2-Fluoro-5-(5-(2-phenylthiazol-4-yl)thiophen-2-yl)benzoic acid] | 
26 | 1.77 | 1.73 | 2.14 | COc1ccc(-c2cccc(-c3csc(-c4ccccc4)n3)c2)cc1C(=O)O [Example 12, 4-Methoxy-3′-(2-phenylthiazol-4-yl)-[1,1′-biphenyl]-3-carboxylic Acid] | 
27 | > 10 | > 10 | > 10 | O=C(O)c1cc(-c2cccc(-c3csc(-c4ccccc4)n3)c2)cc([N+](=O)[O-])c1 [Example 13, 5-Nitro-3′-(2-phenylthiazol-4-yl)biphenyl-3-carboxylic Acid] | 
28 | > 10 | 1.5 | 0.93 | O=C(O)c1cc(-c2cccc(-c3csc(-c4cccs4)n3)c2)ccc1F [Example 15, 4-Fluoro-3′-(2-(thiophen-2-yl)thiazol-4-yl)biphenyl-3-carboxylic Acid] | 
29 | 3.32 | 2.57 | 1.93 | O=C(O)c1cc(-c2cccc(-c3csc(-c4cc5ccccc5o4)n3)c2)ccc1F [Example 16, 3′-(2-(Benzofuran-2-yl)thiazol-4-yl)-4-fluorobiphenyl-3-carboxylic Acid] | 
30 | 0.79 | 0.57 | 0.8 | O=C(O)c1cc(-c2cccc(-c3csc(-c4ccccc4)n3)c2)ccc1Cl [Example 24, 4-Chloro-3′-(2-phenylthiazol-4-yl)biphenyl-3-carboxylic Acid] | 
31 | 4.02 | 2.58 | 1.1 | COc1ccc(-c2nc(-c3cccc(-c4cccc(C(=O)O)c4)c3)cs2)cc1OC [Example 29, 3-{3-[2-(3,4-Dimethoxyphenyl)-1,3-thiazol-4-yl]phenyl}benzoic acid] | 
32 | 3.09 | 1.23 | 0.67 | COc1ccc(-c2nc(-c3cccc(-c4cccc(C(=O)O)c4)c3)cs2)cc1 [Example 31, 3-{3-[2-(4-Methoxyphenyl)-1,3-thiazol-4-yl]phenyl}benzoic acid] | 
